In US8110582B2, “Prophylactic treatment of UV-induced epidermal neoplasia” (3M Innovative Properties Company, priority 2003, dated 2012):

Experiments:
[1] = tested on: UV-induced squamous cell carcinoma (SCC), actinic keratosis (AK), or pre-AK lesions; assay: UV-induced epidermal neoplasia in SKH-1 mice, Example 3 (simultaneous initiation, 18 weeks); format: in vivo; conditions: for % Disease: topical twice per week, UV five days per week for 18 weeks; for Avg. Disease Score: twice per week, UV 18 weeks, SCC + AK + pre-AK lesion score (Table 5)
Excerpt: (§1) Female SKH-1 mice 9-10 weeks old were obtained from Charles River (Raleigh, N.C.) and housed in a room with controlled temperatures and humidity and alternating 12-hour light and dark cycles. The room is lit with fluorescent lights covered by yellow sleeves from EncapSulite International, Inc. (Rosenberg, Tex.) to eliminate all ambient UV radiation. The mice were fed with a 12% Corn Oil Purified Diet from Purina Test Diet (Richmond, Va.) and water, ad libitum. The animals were maintained in facilities approved by the Association for the Assessment and Accreditation of Laboratory Animal Care International and in accordance with current United States Department of Agriculture, Department of Health and Human Services, and National Institutes of Health regulations and standards.
(§2) A small group of mice were not exposed to UV and were used as negative controls. The other mice were chronically UV irradiated. After randomization the mice were lightly anesthetized with halothane and adjustable collars made of hook and loop fastener approximately 10 mm wide and 70 mm long were placed around the mouse's neck to prevent oral ingestion of the IRM. Unless otherwise indicated, thirty minutes before UV exposure mice were topically dosed with 30 μL of either (1) vehicle formulation, (2) IRM formulation, or (3) an SPF 30 sunscreen (NEUTROGENA SPF30 Sunblock with PARSOL 1789), two times per week for a total of 15-18 weeks on the dorsal surface in an area approximately 6 cm^2. Approximately four hours after dosing, the topical treatment (i.e, vehicle formulation; IRM formulation, or sunscreen) was washed off using a dilute soap solution.
(§3) Mice were placed in a standard plexiglass rat cage, 9-10 at a time, that was separated into 12 individual compartments with plexiglass dividers and placed on a shelf 14 inches below the light source without wire cage tops. The mice were exposed to UV radiation 5 times per week (Monday thru Friday) for an average of 15-18 weeks. The UV radiation was provided by a bank of six FS40 lamps (National Biological Corporation, Twinsburg, Ohio), filtered by a Kodacel filter (140 μm thick K6808 cellulose triacetate film; Eastman Kodak, Rochester, N.Y.) that transmits radiation having a wavelength from about 293 nm to about 400 nm. The Kodacel filter was aged 4-6 hours before use. The lights emit UVB (21%) and UVA (79%) light with a peak wavelength of 313 nm, as measured using a radiometer Model PMA 2200 from Solar Light Company (Philadelphia, Pa.) with a PMA 2101 detector for UVB and PMA2110 detector for UVA.
(§4) The dose of UVB irradiation was measured by MED (minimal erythemal dose). By using MED, a relatively constant incident dose of UV was maintained over time. The initial dose of UVB to the mice was 12.6 mJ/cm^2 (0.6 MED) and the average total dose of UVB was 3000-5200 mJ/cm^2. An increase of 10-20% of the MED dose per week was needed due to acclimation of the mice.
(§5) All mice were distinguished from one another by a tattoo placed on the tail. The development and appearance of tumors were noted weekly and recorded starting at about 14-18 weeks.
Formulations of IRM1 and IRM2 were prepared using Vehicle 1. UV dosing and IRM dosing were initiated simultaneously. UV dosing was performed five days per week for 18 weeks.
After 18 weeks, the mice were subjected to gross inspection to determine the presence of a disease state, i.e., squamous cell carcinoma (SCC), actinic keratosis (AK), or pre-AK lesions.
The disease state of each mouse was scored by measuring the size and/or number of lesions present on the mouse. SCC lesions and AK lesions of at least 1 mm in diameter were given a score of 1.
The SCC lesion score, AK lesion score, and the pre-AK lesion score (according to Table 5) were added to provide a total disease score for each mouse. Table 6 includes the average disease score for all of the mice in each treatment group.

[2] = tested on: UV-induced squamous cell carcinoma (SCC), actinic keratosis (AK), or pre-AK lesions; assay: UV-induced epidermal neoplasia in SKH-1 mice, Example 1 (UV and IRM dosing initiated simultaneously, 15 weeks); format: in vivo; conditions: 0.1% formulation in Vehicle 1, topical twice per week, UV five days per week for 15 weeks
Excerpt: (§6) Female SKH-1 mice 9-10 weeks old were obtained from Charles River (Raleigh, N.C.) and housed in a room with controlled temperatures and humidity and alternating 12-hour light and dark cycles. The room is lit with fluorescent lights covered by yellow sleeves from EncapSulite International, Inc. (Rosenberg, Tex.) to eliminate all ambient UV radiation. The mice were fed with a 12% Corn Oil Purified Diet from Purina Test Diet (Richmond, Va.) and water, ad libitum. […]
(§7) Mice were placed in a standard plexiglass rat cage, 9-10 at a time, that was separated into 12 individual compartments with plexiglass dividers and placed on a shelf 14 inches below the light source without wire cage tops. […] The lights emit UVB (21%) and UVA (79%) light with a peak wavelength of 313 nm, as measured using a radiometer Model PMA 2200 from Solar Light Company (Philadelphia, Pa.) with a PMA 2101 detector for UVB and PMA2110 detector for UVA.
(§8) The dose of UVB irradiation was measured by MED (minimal erythemal dose). […]
(§9) All mice were distinguished from one another by a tattoo placed on the tail. The development and appearance of tumors were noted weekly and recorded starting at about 14-18 weeks. […]

[3] = tested on: UV-induced squamous cell carcinoma (SCC), actinic keratosis (AK), or pre-AK lesions; assay: UV-induced epidermal neoplasia in SKH-1 mice, Example 2 (UV dosing six weeks before IRM dosing, 15 weeks); format: in vivo; conditions: topical twice per week, UV for six weeks before IRM dosing, UV five days per week for 15 weeks
Excerpt: as §6, §7, §8, §9

[4] = tested on: UV-induced squamous cell carcinoma (SCC), actinic keratosis (AK), or pre-AK lesions; assay: UV-induced epidermal neoplasia in SKH-1 mice, Example 4 (simultaneous initiation, 17 weeks); format: in vivo; conditions: 0.1% formulation, twice per week; for Avg. Disease Score: UV 17 weeks, every SCC, AK and pre-AK lesion scored 1; for % Disease / Diseased (number of mice): UV five days per week for 17 weeks
Excerpt: as §1, §2, §3, §4, §5
UV dosing and IRM dosing were initiated simultaneously. Daily UV dosing was performed five days per week for 17 weeks. IRM dosing was performed twice per week with the compounds indicated in Table 9, each in a 0.1% formulation. SPF dosing was performed five times per week.
An additional group of mice were topically dosed twice per week with 0.1% formulation of a non-IRM control compound: 1,5-dihydro-1-(2-methylpropyl)-4H-imidazo[4,5-c]quinolin-4-one, the synthesis of which is described in U.S. Pat. No. 4,698,348, Example 71, formulated as shown in Table 8. The non-IRM compound is structurally related to, but outside the scope of, IRM compounds as provided above. […] Mice in the non-IRM group were UV dosed five times per week for 18 weeks. […]

[5] = tested on: actinic keratosis (AK) lesions; assay: Clinical treatment of actinic keratosis lesions and recurrence at follow-up, Example 5; format: in vivo
Experimental: Subjects with four to eight clinically typical, visible, discrete actinic keratosis (AK) lesions in a 25 cm^2 treatment area were randomized in a 1:1 ratio to receive either a 5% cream formulation of IRM14 (ALDARA, 3M Company, St. Paul, Minn.) or vehicle cream once daily three days per week. Subjects received treatment for sixteen weeks even if clinical evidence of lesion clearance was observed. Subjects were evaluated at an Evaluation visit eight weeks after the treatment period concluded.
Subjects were instructed to administer a single application of cream (vehicle or IRM14, as assigned) to the treatment area at approximately the same time of day three days per week. The subjects were instructed to wash the treatment area prior to applying the cream, rub the cream into the treatment area, and then leave the cream in place for at least eight hours without occlusion.
Subjects with no (zero) clinically visible AK lesions in the 25 cm^2 treatment area at the Evaluation visit were considered complete responders. 117 of 242 (48.3%) subjects receiving IRM14 were complete responders; 18 of 250 (7.2%) vehicle-treated subjects were complete responders.
Complete responders were re-evaluated for recurrence of AK lesions at a Follow-up visit between 12 and 18 months after the Evaluation visit. Subjects received no IRM14 treatment between the Evaluation visit and the Follow-up visit. […]

cytokines = assay: Induction of production and secretion of cytokines

Compound	Avg. Disease Score [4]	% Disease [4] [%]	Diseased (number of mice) [4]	other results
CC(C)Cn1cnc2c(N)nc3cccnc3c21 [IRM1, 1-(2-methylpropyl)-1H-imidazo[4,5-c][1,5]naphthyridin-4-amine]	–	–	–	% Disease ([1]; 0.01% formulation): 71%; Avg. Disease Score ([1]; 0.01% formulation): 2.86 ± 0.82; % Disease ([1]; 0.1% formulation): 50%; Avg. Disease Score ([1]; 0.1% formulation): 0.66 ± 0.33; % Disease (percentage of mice exhibiting a disease state) [2]: 0%
Cc1nc2c(N)nc3cccnc3c2n1CC(C)C [IRM2, 2-methyl-1-(2-methylpropyl)-1H-imidazo[4,5-c][1,5]naphthyridin-4-amine]	–	–	–	% Disease ([1]; 0.01% formulation): 71%; Avg. Disease Score ([1]; 0.01% formulation): 4.86 ± 1.81; % Disease ([1]; 0.1% formulation): 25%; Avg. Disease Score ([1]; 0.1% formulation): 0.6 ± 0.42; % Disease (percentage of mice exhibiting a disease state) [2]: 11%; % Disease ([3]; 0.1% formulation): 63%; % Disease ([3]; 1.0% formulation): 50%
Nc1nc2ccccc2c2c1nc1n2CCCC1 [IRM3, 8,9,10,11-tetrahydropyrido[1′,2′:1,2]imidazo[4,5-c]quinolin-6-amine]	1.00 ± 0.54	30	3	–
CCOCc1nc2c(N)nc3ccccc3c2n1CC(C)(C)NC(=O)C1CCCCC1 [IRM4, N-{2-[4-amino-2-(ethoxymethyl)-1H-imidazo[4,5-c]quinolin-1-yl]-1,1-dimethylethyl}cyclohexanecarboxamide]	0.67 ± 0.67	11	1	–
CCc1nc2c(N)nc3ccccc3c2n1CCCCNC(=O)C(C)C [IRM5, N-[4-(4-amino-2-ethyl-1H-imidazo[4,5-c]quinolin-1-yl)butyl]-2-methylpropanamide]	5.40 ± 1.91	60	6	–
CCCc1nc2c(N)nc3ccccc3c2n1CC(C)(C)NS(C)(=O)=O [IRM6, N-[2-(4-amino-2-propyl-1H-imidazo[4,5-c]quinolin-1-yl)-1,1-dimethylethyl]methanesulfonamide]	0.38 ± 0.38	13	1	–
COCCc1nc2c(N)nc3c(c2n1CC(C)(C)NS(C)(=O)=O)CCCC3 [IRM7, N-{2-[4-amino-2-(2-methoxyethyl)-6,7,8,9-tetrahydro-1H-imidazo[4,5-c]quinolin-1-yl]-1,1-dimethylethyl}methanesulfonamide]	3.90 ± 1.30	60	6	–
CCCc1nc2c(N)nc3ccccc3c2n1CCCCNC(=O)NC(C)C [IRM8, N-[4-(4-amino-2-propyl-1H-imidazo[4,5-c]quinolin-1-yl)butyl]-N′-isopropylurea]	3.13 ± 0.89	75	6	–
CCOCc1nc2c(N)nc(C)c(C)c2n1CC(C)(C)NC(=O)NC1CCCCC1 [IRM9, N-{2-[4-amino-2-(ethoxymethyl)-6,7-dimethyl-1H-imidazo[4,5-c]pyridin-1-yl]-1,1-dimethylethyl}-N′-cyclohexylurea]	2.00 ± 0.89	60	3	–
Nc1nc2ccccc2c2c1ncn2CCOCCCc1cccnc1 [IRM10, 1-{2-[3-(3-pyridyl)propoxy]ethyl}-1H-imidazo[4,5-c]quinolin-4-amine]	2.50 ± 1.07	70	7	–
CCCCc1nc2c(N)nc3ccccc3c2n1CCCS(C)(=O)=O [IRM11, 2-butyl-1-[3-(methylsulfonyl)propyl]-1H-imidazo[4,5-c]quinolin-4-amine]	0.70 ± 0.47	20	2	–
CCCCc1nc2c(N)nc3ccccc3c2n1CCS(=O)(=O)CCC [IRM12, 2-butyl-1-[2-(propylsulfonyl)ethyl]-1H-imidazo[4,5-c]quinolin-4-amine]	0.00 ± 0.00	0	0	–
CCOCc1nc2c(N)nc3ccccc3c2n1NC(C)C [IRM13, 2-ethoxymethyl-N^1-isopropyl-1H-imidazo[4,5-c]quinoline-1,4-diamine]	3.33 ± 1.54	67	4	–
CC(C)Cn1cnc2c(N)nc3ccccc3c21 [IRM14, 1-(2-methylpropyl)-1H-imidazo[4,5-c]quinolin-4-amine]	–	–	–	complete responders (no clinically visible AK lesions in the 25 cm^2 treatment area at the Evaluation visit) ([5]; 5% cream once daily three days per week for sixteen weeks, evaluated eight weeks after treatment, 117 of 242 subjects): 48.3%; AK Recurrence Rate ([5]; complete responders at Follow-up visit 12 to 18 months after Evaluation visit, no treatment in between, 77 IRM14-treated): 24.7%
CC(C)Cn1cnc2c(=O)[nH]c3ccccc3c21 [non-IRM, 1,5-dihydro-1-(2-methylpropyl)-4H-imidazo[4,5-c]quinolin-4-one]	–	–	–	induction of production and secretion of cytokines (cytokines): does not induce the production and secretion of cytokines
